Source: US20160115129A1, “NOVEL F[…] ACID ESTER COMPOUND AND SALT THEREOF” (TAIHO PHARMACEUTICAL CO., LTD., priority 2013, published 2016)

Tests used:
female SD rats = experiment: Urethral baseline pressure (intraurethral pressure) in anesthetized rats after oral administration; format: in vivo; conditions: 10 mg/kg oral, 11-week-old female SD rats, 30 minutes after 8 hours from administration, compared with solvent administration group (Student's t-test), FIG. 1
Method: The compounds of the present invention and a comparative compound were individually orally administered in an amount of 10 mg/kg to 11-week-old female SD rats (test substance-administration groups) and distilled water was orally administered as the control to 11-week-old female SD rats (solvent administration group, n=8). As the comparative compound, 4-piperidyl 2,2-diphenyl-2-propoxyacetate was used (Comparative Example).
Seven and a half hours after administration, each rat was anesthetized by intraperitoneal administration of 1.2 g/kg of urethane. Thereafter, the ureters and the area between the urethra and the bladder were ligated, and a vesical fistula catheter and a catheter for measuring intraurethral pressure were inserted and indwelled in the bladder and the urethra. […] Intravesical pressure and intraurethral pressure were recorded via a polygraph connected with the pressure transducers. […] Physiological saline was injected into the urethra using the micro syringe pump connected to the urethra at 3 mL/hr, and the changes in intraurethral pressure associated with the rhythmic contraction were recorded.
The mean values of the urethral baseline pressure for the solvent administration group and the test substance-administration groups were calculated, and the results were indicated as mean±SE. […]

melting point [°C]	Structure (SMILES)	urethral baseline pressure (female SD rats)	urethral baseline pressure (female SD rats; listed as Comparative Example)
152 to 153	Cl.O=C(OC1CCNCC1)C(OCCC(F)(F)F)(c1ccccc1)c1ccccc1	–	–
135 to 136	Cl.O=C(OC1CCNCC1)C(OCCCF)(c1ccccc1)c1ccccc1	–	–
130 to 132	Cl.O=C(COCCC(F)F)OC1CCNCC1	–	–
172 to 174	Cl.O=C(OC1CCNCC1)C(OCC(F)F)(c1ccccc1)c1ccccc1	–	–
128 to 130	Cl.O=C(OC1CCNCC1)C(OCC(F)(F)C(F)F)(c1ccccc1)c1ccccc1	–	–
98 to 100	Cl.O=C(OC1CCNCC1)C(OCC(F)(F)C(F)(F)F)(c1ccccc1)c1ccccc1	–	–
–	CCCOC(C(=O)OC1CCNCC1)(c1ccccc1)c1ccccc1 [comparative compound, 4-piperidyl 2,2-diphenyl-2-propoxyacetate]	little effect	did not have a significant effect
